Test results published in patent publication US7790474B1, “p53 modulators” (Schering Corporation, priority 2005, dated 2010).

Tested on: GST-p53 DNA binding domain (aa 92-aa 312)
Test: Scintillation Proximity Assay (displacement of 3H-labeled p53 binder)
Settings: percentage of 3H-labeled ligand remaining bound, number in brackets = average of n
Protocol: [drawing 38] (^3H at C bearing the chlorophenyl groups and the piperazinyl group), a radiolabeled small molecule which binds to p53, and the GST-p53 DNA binding domain (aa 92-aa 312), a quantitative screening assay was used to determine if various molecules comprise p53 binding activity. The assay is based on Scintillation Proximity Assay (SPA) technology. The complex of GST-p53,
[drawing 39] and Glutathione-SPA beads (Amersham Biosciences) were incubated with mixing for 1 hour at room temperature in the presence of the compounds to be screened. The signal was read on a Microbeta.
The numerical values expressed refer to the percentage of labeled
[drawing 40] remaining bound to the mutant p53 protein after exposure to the indicated compound.

SPA ASSAY % Residual T @ 2 ug/mL of drug (Average of)	Compound
21.0 (2) %	CN(C)CCCNc1nc(CN(C)C2CCC(c3ccccc3)CC2)nc2ccccc12 (stereo not shown) [Formula 108]
45.5 (3) %	CN(C)CCCNc1nc(CN(C)C2CCCCC2)nc2ccccc12 [Formula 96]
58.9%	CN(C)CCCNc1nc(CN(C)Cc2c(F)cccc2F)nc2ccccc12 [Formula 75]
65.5%	CN(C)CCCNc1nc(CN(C)Cc2cccs2)nc2ccccc12 [Formula 65]
29.9%	CN(C)CCCNc1nc(CN2CCN(C(=O)Nc3ccc(Cl)c(Cl)c3)CC2)nc2ccccc12 [Formula 17]
45.9 (3) %	CN(C)CCCNc1nc(CN(C)Cc2ccc3ccccc3c2)nc2ccccc12 [Formula 83]
27.9%	CN(C)CCCNc1nc(CN2CCN(Cc3cccc4ccccc34)CC2)nc2ccccc12 [Formula 14]
5.5 (2) %	CN(C)CCCNc1nc(CN(C)C2CCC(C#N)(c3ccccc3)CC2)nc2ccccc12 (stereo not shown) [Formula 109]
69.7%	Cc1cccc(C)c1CN(C)Cc1nc(NCCCN(C)C)c2ccccc2n1 [Formula 72]
61.3%	COc1ccc(/C=C/c2nc(NCCCN(C)C)c3ccccc3n2)cc1 [Formula 114]
64.1%	CN(C)CCCNc1nc(CN(C)Cc2cccc(F)c2)nc2ccccc12 [Formula 67]
58.5%	CN(C)CCCC[C@H](Nc1nc(CN2CCN(C(c3ccc(Cl)cc3)c3ccc(Cl)cc3)CC2)nc2ccccc12)C(N)=O [Formula 119]
44.8%	CN(C)CC[C@H](Nc1nc(CN2CCN(C(c3ccc(Cl)cc3)c3ccc(Cl)cc3)CC2)nc2ccccc12)C(N)=O [Formula 115]
37.9%	CN(C)CCCNc1nc(CN2CCN(Cc3cccc4cc[nH]c34)CC2)nc2ccccc12 [Formula 13]
20.7 (2) %	CN(C)CCCNc1nc(CN(C)C2CCN(C(=O)c3ccccc3)CC2)nc2ccccc12 [Formula 110]
65.6%	CN(C)CCCNc1nc(CN(C)Cc2ccccc2C(=O)O)nc2ccccc12 [Formula 80]
60.1 (3) %	CN(C)CCCNc1nc(CN(C)Cc2ccccc2OCC(=O)O)nc2ccccc12 [Formula 89]
44.4%	COc1ccc(CN(C)Cc2nc(NCCCN(C)C)c3ccccc3n2)cc1 [Formula 73]
38.1%	CCC(C)(C)C1CCC(N2CCN(Cc3nc(NCCCN(C)C)c4ccccc4n3)CC2)CC1 (stereo not shown) [Formula 15]
67.6%	CC(CCN(C)Cc1nc(NCCCN(C)C)c2ccccc2n1)c1ccccc1 (stereo not shown) [Formula 79]
50.7 (3) %	CN(C)CCCNc1nc(CN(C)Cc2ccoc2)nc2ccccc12 [Formula 64]
68.1%	CN(C)CCCNc1nc(CN(C)Cc2ccc(-c3ccccc3)cc2)nc2ccccc12 [Formula 90]
52.5%	CN(C)CCCNc1nc(CN2CCN(C(=O)Nc3ccc(C#N)cc3)CC2)nc2ccccc12 [Formula 40]
58.6%	CN(C)CCC[C@H](Nc1nc(CN2CCN(C(c3ccc(Cl)cc3)c3ccc(Cl)cc3)CC2)nc2ccccc12)C(N)=O [Formula 118]
23.6 (3) %	Cc1c(CN(C)Cc2nc(NCCCN(C)C)c3ccccc3n2)sc2ccccc12 [Formula 88]

More lines, now with the values behind:

Compound	SPA ASSAY % Residual T @ 2 ug/mL of drug (Average of)
CC(C)[C@H](Nc1nc(CNC(=O)N[C@H](C)c2ccccc2)nc2ccccc12)C(N)=O [Formula 59]	56.8%
CN(C)CCCNc1nc(CN(C)C2C[C@@H]3CC[C@H]2C3)nc2ccccc12 (stereo partly shown) [Formula 98]	64.4%
CC(C)C1CCC(N(C)Cc2nc(NCCCN(C)C)c3ccccc3n2)CC1 (stereo not shown) [Formula 100]	13.5 (3) %
COC(=O)[C@@H](Nc1nc(CNC(=O)Nc2cccc(Br)c2)nc2ccccc12)C(C)C [Formula 58]	44.9%
Clc1ccc(C(c2ccc(Cl)cc2)N2CCN(Cc3nc(N4CCc5ccccc5C4)c4ccccc4n3)CC2)cc1 [Formula 44]	83.9%
CN(C)CCCNc1nc(CN(C)C2CCC3CCCCC3C2)nc2ccccc12 (stereo not shown) [Formula 102]	28.7(3) %
COC(=O)[C@@H](Nc1nc(CNC(=O)Nc2ccc(Cl)c(Cl)c2)nc2ccccc12)C(C)C [Formula 55]	57.0%
CC1CCC(N(C)Cc2nc(NCCCN(C)C)c3ccccc3n2)CC1 (stereo not shown) [Formula 99]	56.5%
OC1CCN(c2nc(CN3CCN(C(c4ccc(Cl)cc4)c4ccc(Cl)cc4)CC3)nc3ccccc23)C1 (stereo not shown) [Formula 42]	70.0%
CN(C)CCCNc1nc(CN(C)Cc2cccn2S(=O)(=O)c2ccccc2)nc2ccccc12 [Formula 93]	45.1 (3) %
O=C(C1CCCO1)N1CCN(c2nc(CN3CCN(C(c4ccc(Cl)cc4)c4ccc(Cl)cc4)CC3)nc3ccccc23)CC1 (stereo not shown) [Formula 48]	66.0%
CN(C)CCCNc1nc(CN(C)C2CCC(C(F)(F)F)CC2)nc2ccccc12 (stereo not shown) [Formula 106]	52.8%
CNCc1nc(NCCCN(C)C)c2ccccc2n1 [Formula 36]	42.6%
COC(=O)[C@@H](Nc1nc(CNC(=O)Nc2ccccc2C(F)(F)F)nc2ccccc12)C(C)C [Formula 54]	48.1%
OC1CCN(c2nc(CN3CCN(C(c4ccc(Cl)cc4)c4ccc(Cl)cc4)CC3)nc3ccccc23)CC1 [Formula 51]	61.6%
Clc1ccc(C(c2ccc(Cl)cc2)N2CCN(Cc3nc(N4CCN(c5ccccc5)CC4)c4ccccc4n3)CC2)cc1 [Formula 46]	87.5%
COC(=O)C1CCN(c2nc(CN3CCN(C(c4ccc(Cl)cc4)c4ccc(Cl)cc4)CC3)nc3ccccc23)CC1 [Formula 53]	62.7%
CN(Cc1ccccc1)Cc1nc2ccccc2c(=O)[nH]1 [Formula 34]	36.8%
CCOC(=O)[C@H](CCN(C)C)Nc1nc(CN2CCN(C(c3ccc(Cl)cc3)c3ccc(Cl)cc3)CC2)nc2ccccc12 [Formula 116]	47.7%
CN(C)CCCNc1nc(CN(C)C2CCCC(C(F)(F)F)C2)nc2ccccc12 (stereo not shown) [Formula 105]	57.7%
NC(=O)C1CCN(c2nc(CN3CCN(C(c4ccc(Cl)cc4)c4ccc(Cl)cc4)CC3)nc3ccccc23)CC1 [Formula 52]	79.9%
COC(=O)[C@@H](Nc1nc(CN2CCN(C(=O)Nc3ccc(C(C)C)cc3)CC2)nc2ccccc12)C(C)C [Formula 11]	39.5%
CN(CCc1ccccn1)c1nc(CN2CCN(C(c3ccc(Cl)cc3)c3ccc(Cl)cc3)CC2)nc2ccccc12 [Formula 45]	61.6%
CN(C)CCCNc1nc(CN(C)C2CCC3(CC2)OCCO3)nc2ccccc12 [Formula 104]	23.0 (2) %
